Experimental data taken from patent publication US9783547B2, “Water soluble 4-azapodophyllotoxin analogs” (CENTRE NATIONAL DE LA RECHERCHE SCIENTIFIQUE (CNRS), priority 2014, dated 2017).
Like-named read-outs stand apart in the source and are kept apart here.

Assays:
EPC = assay: Cytotoxicity assay for human cancer cells (MTS); type: cell-based
Description: (§1) Human cells were grown in DMEM medium supplemented with 10% fetal calf serum (Invitrogen), in the presence of penicillin, streptomycin and amphotericin B (Fungizone) in 75 cm^2 flask under 5% CO2. Cells were plated in 96-well tissue culture microplates at a density of 650 cells/well in 200 μl medium and treated 24 h later with the compound dissolved in DMSO at concentrations ranging from 0.5-10 μM applied using an automated benchstation (Beckman Biomek 3000). Controls received the same volume of DMSO as the test wells (1% final concentration). After a 72 h exposure time, MTS reagent (Promega) was added and incubated for 3 h at 37° C. and the absorbance was read at 490 nm. Results are expressed as the inhibition of cell proliferation calculated as the ratio [(OD490 treated/OD490 control)×100].

HT29 = assay: Cytotoxicity assay for human cancer cells (MTS); type: cell-based; details: HT-29, HT29 colorectal adenocarcinoma, 72 h, read-out: IC 50 value
Description: as §1

MCF7R = assay: Cytotoxicity assay for human cancer cells (MTS); type: cell-based; details: MCF7R breast ER+ (multidrug resistant), 72 h, read-out: IC 50 value
Description: as §1

KB = assay: Cytotoxicity assay for human cancer cells (MTS); type: cell-based; details: KB epidermoid carcinoma, 72 h, read-out: IC 50 value
Description: as §1

SF268 = assay: Cytotoxicity assay for human cancer cells (MTS); type: cell-based; details: SF-268, SF268 brain glioma, 72 h, read-out: IC 50 value
Description: as §1

HL60R = assay: Cytotoxicity assay for human cancer cells (MTS); type: cell-based; details: HL60R acute promyelocytic leukemia-multidrug resistant, 72 h, read-out: IC 50 value
Description: as §1

OVCAR8 = assay: Cytotoxicity assay for human cancer cells (MTS); type: cell-based; details: OVCAR-8, OVCAR8 ovarian adenocarcinoma, 72 h, read-out: IC 50 value
Description: as §1

HepG2 = assay: Cytotoxicity assay for human cancer cells (MTS); type: cell-based; details: HepG2 hepatocellular carcinoma, 72 h, read-out: IC 50 value
Description: as §1

U937 = assay: Cytotoxicity assay for human cancer cells (MTS); type: cell-based; details: U-937, U937 histiocytic lymphoma, 72 h, read-out: IC 50 value
Description: as §1

LnaCap = assay: Cytotoxicity assay for human cancer cells (MTS); type: cell-based
Description: as §1

MDA435 = assay: Cytotoxicity assay for human cancer cells (MTS); type: cell-based; details: MDA435 breast ER− (highly metastatic to lungs), 72 h, read-out: IC 50 value
Description: as §1

A549 = assay: Cytotoxicity assay for human cancer cells (MTS); type: cell-based; details: A549 lung carcinoma, 72 h, read-out: IC 50 value
Description: as §1

SK-OV3 = assay: Cytotoxicity assay for human cancer cells (MTS); type: cell-based; details: SK-OV-3, SK-OV3 ovarian adenocarcinoma, 72 h, read-out: IC 50 value
Description: as §1

K562 = assay: Cytotoxicity assay for human cancer cells (MTS); type: cell-based; details: K562 chronic myelogenous leukemia, 72 h, read-out: IC 50 value
Description: as §1

MCF7 = assay: Cytotoxicity assay for human cancer cells (MTS); type: cell-based; details: MCF7 breast ER+ (hormone dependent), 72 h, read-out: IC 50 value
Description: as §1

HCT116 = assay: Cytotoxicity assay for human cancer cells (MTS); type: cell-based; details: HCT-116, HCT116 colorectal carcinoma, 72 h, read-out: IC 50 value
Description: as §1

MIA PaCa-2 = assay: Cytotoxicity assay for human cancer cells (MTS); type: cell-based; details: MIA PaCa-2 pancreatic carcinoma, 72 h, read-out: IC 50 value
Description: as §1

HL60 = assay: Cytotoxicity assay for human cancer cells (MTS); type: cell-based; details: HL-60, HL60 acute promyelocytic leukemia, 72 h, read-out: IC 50 value
Description: as §1

A2780cis = assay: Cytotoxicity assay for human cancer cells (MTS); type: cell-based; details: A2780cis ovarian carcinoma-cisplatin resistant, 72 h, read-out: IC 50 value
Description: as §1

A2780 = assay: Cytotoxicity assay for human cancer cells (MTS); type: cell-based; details: A2780 ovarian carcinoma, 72 h, read-out: IC 50 value
Description: as §1

U87 = assay: Cytotoxicity assay for human cancer cells (MTS); type: cell-based; details: U-87 MG, U87 brain glioblastoma, astrocytoma, 72 h, read-out: IC 50 value
Description: as §1

PC3 = assay: Cytotoxicity assay for human cancer cells (MTS); type: cell-based
Description: as §1

HCT15 = assay: Cytotoxicity assay for human cancer cells (MTS); type: cell-based; details: HCT-15, HCT15 colon adenocarcinoma, 72 h, read-out: IC 50 value
Description: as §1

MDA231 = assay: Cytotoxicity assay for human cancer cells (MTS); type: cell-based; details: MDA-MB-231, MDA231 breast ER− (hormone independent), 72 h, read-out: IC 50 value
Description: as §1

tubulin = assay: Tubulin polymerization inhibition assay (DAPI fluorescence); type: biochemical; details: tubulin 1 mg/ml, DAPI; read-out: IPT (inhibition of tubulin polymerization) IC50
Text: Fluorescence was then read at the excitation wavelength of 360 nm and emission of 450 nm.

COc1cc(Nc2c3c(nc4cc5c(cc24)OCO5)CCCC3=O)cc(OC)c1OC.Cl [SGR307.HCl, 6,7-(Methylenedioxy)-9-(3,4,5-trimethoxyphenylamino)-3,4-dihydroacridin-1(2H)-one, hydrochloride]
IC50 (EPC; Homo sapiens, 72 h, EPC epithelioma (quiescent cell line), 72 h, MTS, read-out: IC 50 value): 0.237 µM | IC50 (EPC; Homo sapiens, quiescent cell line EPC, values of running text, read-out: IC50 values): 0.31 µM | IC50 (EPC; quiescent cell line EPC, values of running text, hydrochloride, read-out: IC50 values): 0.36 µM | IC50 (HT29): 0.129 µM | IC50 (MCF7R): 0.121 µM | IC50 (KB): 0.111 µM | IC50 (SF268): 0.15 µM | IC50 (HL60R): 0.164 µM | IC50 (OVCAR8): 0.138 µM | IC50 (HepG2): 0.139 µM | IC50 (U937): 0.121 µM | IC50 (LnaCap; LnaCap androgen-dependent prostate adenocarcinoma, value of running text, read-out: IC50): 0.33 to 0.38 µM | IC50 (LnaCap; LnaCap prostate adenocarcinoma (androgen dependent), 72 h, MTS, read-out: IC 50 value): 0.103 µM | IC50 (MDA435): 0.124 µM | IC50 (A549): 0.158 µM | IC50 (SK-OV3): 0.112 µM | IC50 (K562): 0.083 µM | IC50 (MCF7): 0.076 µM | IC50 (HCT116): 0.068 µM | IC50 (MIA PaCa-2): 0.109 µM | IC50 (HL60): 0.09 µM | IC50 (A2780cis): 0.109 µM | IC50 (A2780): 0.099 µM | IC50 (U87): 0.126 µM | IC50 (PC3; PC-3, PC3 androgen-independent prostate adenocarcinoma, value of running text, read-out: IC50): 0.12 to 0.13 µM | IC50 (PC3; PC-3, PC3 prostate adenocarcinoma (androgen independent), 72 h, MTS, read-out: IC 50 value): 0.098 µM | IC50 (HCT15): 0.091 µM | IC50 (MDA231): 0.079 µM | IC50 (tubulin): 1.09 µM
